As usually defined, the solubility is the concentration that dissolves in the medium under given conditions. Broadly, the Solubility is the concentration that dissolves in the medium under given conditions.

In one data set the test system is erythrocytes. The data set can be described thus: Hemolysis studies in vitro. To be noted: drug concentrations of 100 μg/mL or more. It counts as cell-based. An excerpt:
The hemolytic potential of the final use-formulation should also be minimal, since the terminal use formulation/infusate contain Bu and PEG as the only significant solutes to be infused, i.e. this is basically D5W with a moderate amount of PEG (40%, v/v) as its main additive. The procedure of Parthasarathy et al. was used to examine the hemolytic potential of a few selected formulations, and the LD50 values of the most optimal formulation was constructed as previously described (Parthasarathy et al., 1994). Briefly, heparinized blood was mixed with an equal volume of Alsever's solution (Alsever and Ainslie, 1941). This mixture was washed twice in PBS, and a 10% (volume per volume, v/v) erythrocyte/PBS solution was then prepared and mixed with increasing amounts of PEG (essentially the VE-acetone/PEG prototype vehicle) with or without addition of D5W and with or without Bu. The resulting mixtures were incubated for 4 hours at 37° C. […] The release of hemoglobin in the supernatant (i.e., hemolysis) was determined spectrophotometrically at a wavelength of 550 nm. Maximum lysis was measured against a reference erythrocyte solution that had been lysed by hypotonic shock. The hemolytic potential of the vehicle and the complete final use-formulation (Bu/VE-acetone/PEG/D5W) was evaluated as described (Parthasarathy et al., 1984). […]

The conditions of data set [1]: in vivo; cited from earlier work.
The nature of a further data set: physchem. To be noted: thermodynamic from solid.

For the compound `CS(=O)(=O)OCCCCOS(C)(=O)=O` [Busulfan, 1,4-butanediol dimethanesulfonate], the Bu-dependent lysis result in the data set on erythrocytes is reported as “barely exceeded background levels”. In addition, in data set [1], the “terminal half-life in blood” value was 2 to 4 h. The solubility at 60 minutes in “physchem” (aqueous buffer, Solubility (mg/mL), Solvent: HCl 6 N, room temperature) is 700 µg/mL; in “physchem” (aqueous with cosolvent or surfactant or cyclodextrin, Solubility (mg/mL), Solvent: PEG:water 1:1, room temperature), 250 µg/mL; in “physchem” (aqueous with cosolvent or surfactant or cyclodextrin, Solubility (mg/mL), Solvent: PEG:water 1:2, room temperature), 190 µg/mL; in “physchem” (organic solvent or mixture), about 16000 µg/mL; in “physchem” (organic solvent or mixture, Solubility (mg/mL), Solvent: Acetic acid, room temperature), 3800 µg/mL; in “physchem” (organic solvent or mixture, Solubility (mg/mL), Solvent: Ethanol, room temperature) it was 300 µg/mL. The solubility at 60 minutes in “physchem” (organic solvent or mixture, Solubility (mg/mL), Solvent: PEG (−400), room temperature) came to 200 µg/mL; in the data set “physchem” (organic solvent or mixture, Solubility (mg/mL), Solvent: Propylene glycol, room temperature), 200 µg/mL. Besides, the Solubility in “physchem” (organic solvent or mixture) amounted to 16.4 mg/mL.

These data come from patent US10028949B2, “Parenteral formulations of lipophilic pharmaceutical agents and methods for preparing and using the same” (priority 2011, dated 2018).
